Assay results from patent US4504580A, “Antibiotics produced by fermentation of a novel strain of Streptomyces hygroscopicus” (Bristol-Myers Company, priority 1983, dated 1985).
In brackets after ≈: the same amount, converted by molar mass. Like-named read-outs stand apart in the source and are kept apart here.

Legend:
Format in all cases: cell-based
[1] = system: Staphylococcus aureus 209P; assay: MIC by serial two-fold agar dilution, S. aureus 209P; details: Staphylococcus aureus, 209P
Protocol: (§1) The minimum inhibitory concentrations (MIC) of Bu-2659A, B, C, D and E were determined for a variety of gram-positive and gram-negative bacteria by the serial two-fold agar dilution method using the Steer's multi-inoculating apparatus. The inoculum was standardized as a 10^4 dilution of an overnight culture of the test organisms in Heart Infusion Broth (Difco). […] Reference antibiotics utilized in these tests included commercially available neomycin as well as its components, neomycins B and C [as used herein, the term "neomycin" means the commercial product containing neomycins B and C at an approximate ratio of 7:3], paromomycin [the commercial product containing >90% of paromomycin I and <10% of paromomycin II] and ribostamycin.

[2] = system: Staphylococcus aureus Smith; assay: MIC by serial two-fold agar dilution, S. aureus Smith; details: Staphylococcus aureus
Protocol: as §1

[3] = system: Staphylococcus aureus D136; assay: MIC by serial two-fold agar dilution, S. aureus D136; details: Staphylococcus aureus, D136
Protocol: as §1

[4] = system: Micrococcus luteus PCI 1001; assay: MIC by serial two-fold agar dilution, M. luteus PCI 1001; details: Micrococcus luteus, PCI1001
Protocol: as §1

Micrococcus flavus D12 = assay: MIC by serial two-fold agar dilution, M. flavus D12; details: Micrococcus flavus, D12
Protocol: as §1

[5] = system: Bacillus subtilis PCI 219; assay: MIC by serial two-fold agar dilution, B. subtilis PCI 219; details: Bacillus subtilis, PCI219
Protocol: as §1

Escherichia coli NIHJ = assay: MIC by serial two-fold agar dilution, E. coli NIHJ; details: Escherichia coli
Protocol: as §1

Escherichia coli Juhl = assay: MIC by serial two-fold agar dilution, E. coli Juhl; details: Escherichia coli
Protocol: as §1

[6] = system: Klebsiella pneumoniae D11; assay: MIC by serial two-fold agar dilution, K. pneumoniae D11; details: Klebsiella pneumoniae, D11
Protocol: as §1

Proteus vulgaris A9436 = assay: MIC by serial two-fold agar dilution, P. vulgaris A9436; details: Proteus vulgaris, A9436
Protocol: as §1

Proteus mirabilis A9554 = assay: MIC by serial two-fold agar dilution, P. mirabilis A9554; details: Proteus mirabilis, A9554
Protocol: as §1

Proteus mirabilis A9906 = assay: MIC by serial two-fold agar dilution, P. mirabilis A9906; details: Proteus mirabilis, A9906
Protocol: as §1

Proteus morganii A9553 = assay: MIC by serial two-fold agar dilution, P. morganii A9553; details: Morganella morganii, A9553
Protocol: as §1

Proteus rettgeri A15167 = assay: MIC by serial two-fold agar dilution, P. rettgeri A15167; details: Providencia rettgeri, A15167
Protocol: as §1

[7] = system: Pseudomonas aeruginosa D15; assay: MIC by serial two-fold agar dilution, P. aeruginosa D15; details: Pseudomonas aeruginosa, D15
Protocol: as §1

[8] = system: Pseudomonas aeruginosa A9930; assay: MIC by serial two-fold agar dilution, P. aeruginosa A9930; details: Pseudomonas aeruginosa, A9930
Protocol: as §1

[9] = system: Serratia marcescens A20019; assay: MIC by serial two-fold agar dilution, S. marcescens A20019; details: Serratia marcescens, A20019
Protocol: as §1

[10] = system: Staphylococcus aureus A20239; assay: MIC, aminoglycoside-resistant S. aureus A20239; details: Staphylococcus aureus, A20239
Protocol: as §1

[11] = system: Bacillus brevis IFO 12334; assay: MIC, aminoglycoside-resistant B. brevis IFO 12334; details: Brevibacillus brevis, IFO12334
Protocol: as §1

Escherichia coli ML 1630 = assay: MIC, aminoglycoside-resistant E. coli ML 1630; details: Escherichia coli, ML1630; Table 9; inactivating enzyme APH(3')-I; Mueller-Hinton agar; read-out: MIC
Protocol: as §1

Escherichia coli A20107 = assay: MIC, aminoglycoside-resistant E. coli A20107; details: Escherichia coli, A20107; Table 9; inactivating enzyme APH(3')-II; Mueller-Hinton agar; read-out: MIC
Protocol: as §1

[12] = system: Escherichia coli JR66/W677; assay: MIC, aminoglycoside-resistant E. coli JR66/W677; details: Escherichia coli, JR66/W677
Protocol: as §1

Escherichia coli JR88 = assay: MIC, aminoglycoside-resistant E. coli JR88; details: Escherichia coli, JR88
Protocol: as §1

[13] = system: Escherichia coli JR35/C600; assay: MIC, aminoglycoside-resistant E. coli JR35/C600; details: Escherichia coli, JR35/C600
Protocol: as §1

Escherichia coli A20732 = assay: MIC, aminoglycoside-resistant E. coli A20732; details: Escherichia coli, A20732; Table 9; inactivating enzyme ANT(2"); Mueller-Hinton agar; read-out: MIC
Protocol: as §1

[14] = system: Escherichia coli NR79/W677; assay: MIC, aminoglycoside-resistant E. coli NR79/W677; details: Escherichia coli, NR79/W677
Protocol: as §1

[15] = system: Enterobacter cloacae A20364; assay: MIC, aminoglycoside-resistant E. cloacae A20364; details: Enterobacter cloacae, A20364
Protocol: as §1

[16] = system: Pseudomonas aeruginosa A20601; assay: MIC, aminoglycoside-resistant P. aeruginosa A20601; details: Pseudomonas aeruginosa, A20601
Protocol: as §1

[17] = system: Pseudomonas aeruginosa A20896; assay: MIC, aminoglycoside-resistant P. aeruginosa A20896; details: Pseudomonas aeruginosa, A20896
Protocol: as §1

| Structure (SMILES) | MIC [1] | MIC [2] | MIC [3] | MIC [4] | MIC (Micrococcus flavus D12) | MIC [5] | MIC (Escherichia coli Juhl) | MIC [6] | MIC (Proteus vulgaris A9436) | MIC (Proteus mirabilis A9554) | MIC (Proteus mirabilis A9906) | MIC (Proteus morganii A9553) | MIC (Proteus rettgeri A15167) | MIC [7] | MIC [8] | MIC [9] | MIC (Escherichia coli ML 1630) | MIC (Escherichia coli A20107) | MIC [12] | MIC (Escherichia coli JR88) | also measured |
| --- | --- | --- | --- | --- | --- | --- | --- | --- | --- | --- | --- | --- | --- | --- | --- | --- | --- | --- | --- | --- | --- |
| NC[C@@H]1O[C@H](O[C@H]2[C@@H](O)[C@H](O[C@@H]3[C@@H](O)[C@H](N)C[C@H](N)[C@H]3O[C@H]3O[C@H](CO)[C@@H](O)[C@H](O)[C@H]3N)O[C@@H]2CO)[C@H](N)[C@@H](O)[C@@H]1O [Paromomycin, paromomycin] | 0.8 µg/mL (≈ 1.3 µM) | 1.6 µg/mL (≈ 2.6 µM) | 0.8 µg/mL (≈ 1.3 µM) | 6.3 µg/mL (≈ 10.2 µM) | 12.5 µg/mL (≈ 20.3 µM) | 0.2 µg/mL (≈ 0.325 µM) | 12.5 µg/mL (≈ 20.3 µM) | 0.4 µg/mL (≈ 0.65 µM) | 0.8 µg/mL (≈ 1.3 µM) | 0.8 µg/mL (≈ 1.3 µM) | 0.8 µg/mL (≈ 1.3 µM) | 1.6 µg/mL (≈ 2.6 µM) | 1.6 µg/mL (≈ 2.6 µM) | 50 µg/mL (≈ 81.2 µM) | 12.5 µg/mL (≈ 20.3 µM) | 1.6 µg/mL (≈ 2.6 µM) | > 100 µg/mL | > 100 µg/mL | > 100 µg/mL | 1.6 µg/mL (≈ 2.6 µM) | MIC (Escherichia coli NIHJ; Table 7, Mueller-Hinton agar, read-out: MIC): 3.1 µg/mL (≈ 5.04 µM); MIC [10]: > 100 µg/mL; MIC [11]: > 100 µg/mL; MIC [13]: > 100 µg/mL; MIC (Escherichia coli A20732): 1.6 µg/mL (≈ 2.6 µM); MIC [14]: > 100 µg/mL; MIC [15]: > 100 µg/mL; MIC [16]: > 100 µg/mL; MIC [17]: > 100 µg/mL |
| NC[C@H]1O[C@H](O[C@H]2[C@H](O[C@@H]3O[C@H](CO)[C@@H](O)[C@H]3O)[C@@H](O)[C@H](N)C[C@@H]2N)[C@H](N)[C@@H](O)[C@@H]1O [Ribostamycin, ribostamycin] | 1.6 µg/mL (≈ 3.52 µM) | 3.1 µg/mL (≈ 6.82 µM) | 3.1 µg/mL (≈ 6.82 µM) | 6.3 µg/mL (≈ 13.9 µM) | 12.5 µg/mL (≈ 27.5 µM) | 0.4 µg/mL (≈ 0.88 µM) | 6.3 µg/mL (≈ 13.9 µM) | 0.4 µg/mL (≈ 0.88 µM) | 0.8 µg/mL (≈ 1.76 µM) | 1.6 µg/mL (≈ 3.52 µM) | 1.6 µg/mL (≈ 3.52 µM) | 1.6 µg/mL (≈ 3.52 µM) | 0.8 µg/mL (≈ 1.76 µM) | > 100 µg/mL | 100 µg/mL (≈ 220 µM) | 25 µg/mL (≈ 55 µM) | > 100 µg/mL | > 100 µg/mL | > 100 µg/mL | 1.6 µg/mL (≈ 3.52 µM) | MIC (Escherichia coli NIHJ): 3.1 µg/mL (≈ 6.82 µM); MIC ([10]; Table 9, inactivating enzyme APH(3')-I,II, Mueller-Hinton agar, read-out: MIC): > 100 µg/mL; MIC ([11]; Table 9, inactivating enzyme ANT (4'), Mueller-Hinton agar, read-out: MIC): > 100 µg/mL; MIC [13]: > 100 µg/mL; MIC (Escherichia coli A20732): 1.6 µg/mL (≈ 3.52 µM); MIC [14]: > 100 µg/mL; MIC ([15]; Table 9, inactivating enzyme APH(3')-I, Mueller-Hinton agar, read-out: MIC): > 100 µg/mL; MIC ([16]; Table 9, inactivating enzymes AAC(3)-I, APH(3')-II, Mueller-Hinton agar, read-out: MIC): > 100 µg/mL; MIC ([17]; Table 9, inactivating enzyme AAC(3)-II, Mueller-Hinton agar, read-out: MIC): > 100 µg/mL |
